According to patent US20260317367A1, “SALTS INCLUDING CRYSTALLINE SALTS OF 25-HYDROXY-CHOLEST-5-EN-3-SULFATE AND METHODS FOR PREPARING SAME” (Durect Corporation, priority 2022, published 2026):
Where a name gives a salt, the structure may show the parent alone.

How the values were obtained:
Assay type in all cases: physicochemical
[1] = Final pH of the solubility sample solutions in aqueous media; details: for pH of the solubility sample, 0.9% Sodium Chloride: 0.9% sodium chloride (blank 5.8); for pH of the solubility sample, 5% Dextrose: 5% dextrose (blank 4.7); for pH of the solubility sample, FaSSGF: FaSSGF (blank 1.5, 1.6); for pH of the solubility sample, FaSSIF: FaSSIF (blank 6.5, 6.5); for pH of the solubility sample, FeSSIF: FeSSIF (blank 4.9, 5.0); for pH of the solubility sample, Water: water (blank 6.3)
Procedure: (§1) 25HC3S salts were weighed in 8 mL or 4 mL glass vials with Teflon coated screw caps. Aliquots of each solvent were added to each sample and vortexed for about one minute until excess solid remained. Samples were placed on shaker at room temperature with 210 motion per minute shaking.
(§2) After one day, samples were pulled and checked if excess solid was present. About 1.5 mL aliquot of each sample was centrifuged at 12000 rpm for 12 to 15 minutes. […] Aliquots of the top clear solution of each centrifuged sample in MeOH, EtOH, IPA and ACN were diluted with diluent (water:MeOH 95:5) and assayed by HPLC. Samples of the salts in aqueous media were assayed by HPLC without dilution.
5.1 Solubility of 25HC3S Salts in Aqueous Media

[2] = Solubility of 25HC3S salts after one day at room temperature (HPLC, as free acid); details: one day; for Solubility in methanol (in words): MeOH
Procedure: These fluids were prepared per the instruction listed by Biorelevant (Biorelevant.com). Each buffer concentrate was diluted with water and mixed well. FaSSIF, FeSSIF, FaSSGF powder was added to each buffer and mixed to completely dissolve the powder. Buffers were stored at room temperature and used within 48 hours of preparation.
as §1, §2
All solubility sample solutions of 25HC3S salts were determined using HPLC. A linear standard curve was constructed using standards with concentration between 11 μg/mL to 1.5 mg/mL as free acid forcing the curve to origin. Solubilities are reported as mg/mL free acid 25HC3S. Detection limit (LOD) of the HPLC method was calculated as 0.0007 mg/mL.

[3] = Hausner ratio and compressibility index of 25HC3S salts; details: for Compressibility Index: Table C3 heads this index in %
Procedure: Although there are some variations in the method of determining the compressibility index and Hausner ratio, the basic procedure is to measure the unsettled apparent volume, VO, and the final tapped volume, Vf, of the powder after tapping the material until no further volume changes occur. The compressibility index and the Hausner ratio are calculated as follows: […]
Both the Hausner ratio and the compressibility index are empirically established. The Hausner ratio and compressibility index are not absolute properties of a material; its value can vary depending on the methodology used to determine them. In this case, since the 14 salts of 25HC3S were measured the same way, the relative values should be accurate.
Table C3, from USP <1174> Powder Flow, describes the flow character of the powder based on the compressibility index and Hausner ratio values.
Powder was carefully poured into a 5 mL glass graduated cylinder (to contain) until it was close to or at 5.0 mL. This initial volume was recorded as Vo. The graduated cylinder was tapped on a hard surface for 200 times and the volume was recorded. The cylinder was tapped 100 times more, and the final volume Vf was recorded. Typically, the volume after 200 taps was identical to after 300 taps, or within 0.1 mL.

[4] = Appearance (color, clumping, flowability) of stored 25HC3S salts
Procedure: Approximately 25 mg of each crystalline 25HC3S salt was added to 20 mL glass vials and each powder weight was recorded. Four vials were prepared for each salt and stored at 2-8° C. or 80° C. according to Table B2. The samples were scheduled initially to pull for testing at 3 weeks and 6 weeks' time points.
For those […] salts, the remaining vials stored at 2-8° C. for 3 weeks were allocated for storage at 60° C. for 1 week. Additional stability data was generated according to Table B3.
For appearance, each unopened vial was visually examined for color, clumping, and flowability.

[5] = room temperature, listed as crystalline 25HC3S magnesium
[6] = listed as 25HC3S hydroxyethylpyrrolidinium
[7] = room temperature, as free acid, LOD 0.0007 mg/mL, 1440 min
[8] = room temperature, listed as crystalline 25HC3S hydroxyethylpyrrolidinium

In the case of `CC(CCCC(C)(C)O)C1CCC2C3CC=C4CC(OS(=O)(=O)O)CCC4(C)C3CCC12C` (centres unmarked) [Salt #13], the “pH of the solubility sample, 0.9% Sodium Chloride” value ([1]; listed as 25HC3S magnesium) is reported as 8.3, the “pH of the solubility sample, 5% Dextrose” value ([1]; listed as 25HC3S magnesium) is reported as 7.1 and the “pH of the solubility sample, FaSSGF” value [1] is reported as 1.6. For the same compound, the “pH of the solubility sample, FaSSIF” value ([1]; listed as 25HC3S magnesium) was 6.5, the “pH of the solubility sample, FeSSIF” value ([1]; listed as 25HC3S magnesium) was 4.9 and the “pH of the solubility sample, Water” value ([1]; listed as 25HC3S magnesium) was 8.7. The “Solubility in ethanol (in words)” value ([2]; EtOH, room temperature) was “did not reach saturation”, the “Solubility in FaSSGF (in words)” value ([2]; FaSSGF, room temperature, listed as crystalline 25HC3S magnesium) was “low solubility” and the “Solubility in FaSSGF” value ([2]; Fasted State Simulated Gastric Fluid, pH 1.6, room temperature, as free acid, LOD 0.0007 mg/mL) was “no solubilized drug was detected”. The “Solubility in methanol (in words)” value ([2]; room temperature) was “did not reach saturation”, the “Solubility in methanol (in words)” value [2, 5] was “relatively high solubility” and the “Solubility in saline / 0.9% sodium chloride (in words)” value [2, 5] was “low solubility”. The “Compressibility Index” value ([3]; listed as 25HC3S magnesium) was 36, the “Hausner Ratio” value ([3]; listed as 25HC3S magnesium) was 1.56 and the Appearance ([4]; 2-8° C., 3 wk, listed as 25HC3S magnesium) was “White, free flowing powder, no clumping”. For the same compound, the Appearance ([4]; 60° C., 1 wk (after 3 weeks at 2-8° C.), listed as 25HC3S magnesium) was “Brown, melted material stuck to bottom”, the “Appearance after 3 weeks at 80° C.” value ([4]; 80° C.) was “completely burned” and the Appearance ([4]; 80° C., 3 wk, listed as 25HC3S magnesium) was “Dark brown, melted material stuck to”.

In the case of `CC(CCCC(C)(C)O)C1CCC2C3CC=C4CC(OS(=O)(=O)O)CCC4(C)C3CCC12C` (centres unmarked) [Salt #6], the “pH of the solubility sample, 0.9% Sodium Chloride” value [1, 6] is reported as 8.3, the “pH of the solubility sample, 5% Dextrose” value [1, 6] is reported as 6.4 and the “pH of solubility sample solution in 5% dextrose” value ([1]; 5% dextrose (medium pH 4.7)) is reported as 6.4. For the same compound, the “pH of the solubility sample, FaSSGF” value [1] was 1.6, the “pH of the solubility sample, FaSSIF” value [1, 6] was 6.5 and the “pH of the solubility sample, FeSSIF” value [1, 6] was 4.9. For the same compound, the “pH of the solubility sample, Water” value [1, 6] was 8.2, the “Solubility in 0.9% NaCl” value ([2]; 0.9% NaCl, room temperature, as free acid, ND = not detected, detection limit 0.7 μg/mL, 1440 min, listed as 25HC3S hydroxyethylpyrrolidinium) was 3 µg/mL and the “Solubility in 5% Dextrose” value [2, 7] was 642 µg/mL. For the same compound, the “Solubility in 5% Dextrose” value ([2]; room temperature, as free acid, ND = not detected, detection limit 0.7 μg/mL, 1440 min, listed as 25HC3S hydroxyethylpyrrolidinium) was 642 µg/mL, the “Solubility in acetonitrile (in words)” value ([2]; ACN, room temperature) was “relatively high solubility” and the “Solubility in FaSSGF (in words)” value ([2]; FaSSGF, room temperature) was “high solubility”. The “Solubility in FaSSGF” value ([2]; FaSSGF, room temperature, as free acid, ND = not detected, detection limit 0.7 μg/mL, 1440 min, listed as 25HC3S hydroxyethylpyrrolidinium) was 10 µg/mL, the “Solubility in FaSSIF (in words)” value ([2]; FaSSIF, room temperature) was “high solubility” and the “Solubility in FaSSIF” value ([2]; FaSSIF, room temperature, as free acid, 1440 min, listed as 25HC3S hydroxyethylpyrrolidinium) was 161 µg/mL. The “Solubility in FaSSIF (in words)” value ([2]; FaSSIF, room temperature, listed as crystalline 25HC3S hydroxyethylpyrrolidinium) was “relatively high solubility”, the “Solubility in FaSSIF” value ([2]; Fasted State Simulated Intestinal Fluid, room temperature, as free acid, 1440 min) was 161 µg/mL and the “Solubility in FeSSIF (in words)” value ([2]; room temperature) was “high solubility”. The “Solubility in FeSSIF (in words)” value [2, 8] was “relatively high solubility”, the “Solubility in methanol (in words)” value ([2]; room temperature) was “did not reach saturation” and the “Solubility in ACN” value ([2]; acetonitrile, room temperature, as free acid, 1440 min, listed as 25HC3S hydroxyethylpyrrolidinium) was 1200 µg/mL. For the same compound, the “Solubility in 5% dextrose (in words)” value ([2]; room temperature) was “highest solubility”, the “Solubility in 5% dextrose (in words)” value [2, 8] was “relatively high solubility” and the “Solubility in IPA” value ([2]; isopropyl alcohol, room temperature, as free acid, 1440 min, listed as 25HC3S hydroxyethylpyrrolidinium) was 6700 µg/mL. The “Solubility in saline / 0.9% sodium chloride (in words)” value ([2]; room temperature) was “highest solubility”, the “Solubility in water (in words)” value ([2]; water, room temperature) was “highest solubility” and the “Solubility in H2O” value ([2]; water, room temperature, as free acid, ND = not detected, detection limit 0.7 μg/mL, 1440 min, listed as 25HC3S hydroxyethylpyrrolidinium) was 273 µg/mL. For the same compound, the “Compressibility Index” value [3, 6] was 35, the “Hausner Ratio” value [3, 6] was 1.53 and the Appearance ([4]; 2-8° C., 3 wk, listed as 25HC3S hydroxyethylpyrrolidinium) was “White, free flowing powder with clumping”. For the same compound, the Appearance ([4]; 60° C., 1 wk (after 3 weeks at 2-8° C.), listed as 25HC3S hydroxyethylpyrrolidinium) was “White, free flowing powder with clumping”, the “Appearance after 3 weeks at 80° C.” value ([4]; 80° C.) was “completely burned” and the Appearance ([4]; 80° C., 3 wk, listed as 25HC3S hydroxyethylpyrrolidinium) was “Dark brown, melted material stuck to”.

In the case of `CC(CCCC(C)(C)O)C1CCC2C3CC=C4CC(OS(=O)(=O)O)CCC4(C)C3CCC12C` (centres unmarked) [Salt #2], the “pH of the solubility sample, 0.9% Sodium Chloride” value ([1]; listed as 25HC3S calcium) is reported as 8.5, the “pH of solubility sample solution in 0.9% sodium chloride” value ([1]; 0.9% sodium chloride (medium pH 5.8)) is reported as 8.5 and the “pH of the solubility sample, 5% Dextrose” value ([1]; listed as 25HC3S calcium) is reported as 7.2. For the same compound, the “pH of the solubility sample, FaSSGF” value [1] was 1.6, the “pH of the solubility sample, FaSSIF” value ([1]; listed as 25HC3S calcium) was 6.5 and the “pH of the solubility sample, FeSSIF” value [1] was 5.0. The “pH of the solubility sample, Water” value ([1]; listed as 25HC3S calcium) was 8.8, the “Solubility in 5% Dextrose” value [2, 7] was 5 µg/mL and the “Solubility in FaSSGF (in words)” value ([2]; FaSSGF, room temperature, listed as crystalline 25HC3S calcium) was “low solubility”. For the same compound, the “Solubility in FaSSIF (in words)” value ([2]; FaSSIF, room temperature, listed as crystalline 25HC3S calcium) was “relatively high solubility”, the “Solubility in saline / 0.9% sodium chloride (in words)” value ([2]; room temperature, listed as crystalline 25HC3S calcium) was “low solubility” and the “Compressibility Index” value ([3]; listed as 25HC3S calcium) was 36. The “Hausner Ratio” value ([3]; listed as 25HC3S calcium) was 1.56, the Appearance ([4]; 2-8° C., 3 wk, listed as 25HC3S calcium) was “White, free flowing powder with some” and the Appearance ([4]; 60° C., 1 wk (after 3 weeks at 2-8° C.), listed as 25HC3S calcium) was “Brown, melted material stuck to bottom”. For the same compound, the “Appearance after 3 weeks at 80° C.” value ([4]; 80° C.) was “completely burned” and the Appearance ([4]; 80° C., 3 wk, listed as 25HC3S calcium) was “Dark brown, melted material stuck to”.
